{"source": "ChEMBL document CHEMBL2390918", "about": "“Cinnamides as selective small-molecule inhibitors of a cellular model of breast cancer stem cells” (Bioorg Med Chem Lett, 2013)", "key": {"CHO-K1": {"system": "CHO-K1", "assay": "Displacement of [125I]2-iodomelatonin from human recombinant melatonin receptor 1 expressed in CHOK1 cells at 10 uM after 3 hrs relative to control", "assay_type": "cell-based"}, "Rattus norvegicus [1]": {"organism": "Rattus norvegicus", "details": "Wistar, 10 uM"}, "[2]": {"assay": "Displacement of [3H]Batrachotoxin from sodium channel site 2 in Wistar rat brain after 60 mins"}, "IMR-32": {"system": "IMR-32", "assay": "Displacement of [I125]Epibatidine from nAChR in human IMR32 cells at 10 uM after 60 mins relative to control", "assay_type": "cell-based"}, "[3]": {"molecular_target": "Glutamate NMDA receptor (Rattus norvegicus) (UniProt P35439+Q00959+Q00960+Q00961+Q62645+Q8VHN2+Q9R1M7)", "assay": "Displacement of [3H]MDL105519 from NMDA receptor glycine binding site in Wistar rat cerebral cortex at 10 uM after 30 mins relative to control", "assay_type": "tissue-based"}, "Glutamate NMDA receptor": {"molecular_target": "Glutamate NMDA receptor", "assay": "Displacement of [3H]MDL105519 from NMDA receptor glycine binding site in Wistar rat cerebral cortex after 30 mins", "assay_type": "tissue-based"}, "HIT-T15": {"system": "HIT-T15", "assay": "Displacement of [3H]Glyburide from ATP-sensitive potassium channel in hamster pancreatic HIT-T15 cells at 10 uM after 2 hrs relative to control", "assay_type": "cell-based", "details": "Mesocricetus auratus"}, "[4]": {"assay": "Displacement of [3H]Glyburide from ATP-sensitive potassium channel in hamster pancreatic HIT-T15 cells after 2 hrs", "assay_type": "cell-based, Mesocricetus auratus"}, "[5]": {"assay": "Selectivity ratio of EC50 for human CSC-like HMLE cells expressing shRNA and epithelial cadherin to EC50 for human HMLE cells expressing shRNA and GFP", "assay_type": "ADME, cell-based", "details": "read-out: Ratio EC50"}, "[6]": {"assay": "Cytotoxicity against human HMLE cells expressing shRNA and GFP after 70 to 74 hrs by Cell Titer Glo assay", "assay_type": "cell-based"}, "[7]": {"assay": "Cytotoxicity against human CSC-like HMLE cells expressing shRNA and epithelial cadherin after 70 to 74 hrs by Cell Titer Glo assay", "assay_type": "functional, cell-based"}, "[8]": {"molecular_target": "Cysteinyl leukotriene receptor 1 (Homo sapiens) (UniProt Q9Y271)", "sequence (Q9Y271 whole entry)": "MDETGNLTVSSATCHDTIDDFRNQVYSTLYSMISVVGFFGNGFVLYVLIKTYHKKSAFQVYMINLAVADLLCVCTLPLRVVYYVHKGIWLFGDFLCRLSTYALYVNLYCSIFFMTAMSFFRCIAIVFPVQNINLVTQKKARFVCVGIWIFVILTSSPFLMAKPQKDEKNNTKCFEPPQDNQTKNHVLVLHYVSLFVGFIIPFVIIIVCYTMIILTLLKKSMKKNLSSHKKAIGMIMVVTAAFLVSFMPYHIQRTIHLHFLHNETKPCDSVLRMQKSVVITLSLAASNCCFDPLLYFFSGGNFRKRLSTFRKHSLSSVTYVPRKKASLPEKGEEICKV", "details": "CHO-K1, 10 uM"}, "[9]": {"molecular_target": "5-hydroxytryptamine receptor 2B (Homo sapiens) (UniProt P41595)", "sequence (P41595 whole entry)": "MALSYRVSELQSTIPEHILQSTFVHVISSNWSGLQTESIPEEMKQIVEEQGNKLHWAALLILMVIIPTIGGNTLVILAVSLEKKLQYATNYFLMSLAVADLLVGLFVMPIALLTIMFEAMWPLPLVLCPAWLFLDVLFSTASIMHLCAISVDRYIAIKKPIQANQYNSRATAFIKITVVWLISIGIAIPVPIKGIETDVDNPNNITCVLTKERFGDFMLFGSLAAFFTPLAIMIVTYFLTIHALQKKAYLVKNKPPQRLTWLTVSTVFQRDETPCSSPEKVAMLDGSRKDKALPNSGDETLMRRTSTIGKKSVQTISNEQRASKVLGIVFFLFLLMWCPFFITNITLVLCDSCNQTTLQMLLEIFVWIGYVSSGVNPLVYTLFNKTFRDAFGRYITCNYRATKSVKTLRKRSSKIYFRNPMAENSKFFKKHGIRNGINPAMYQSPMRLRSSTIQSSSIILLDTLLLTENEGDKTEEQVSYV", "details": "CHO-K1, 10 uM"}, "[10]": {"assay": "Selectivity ratio of EC50 for human HMLE cells expressing shRNA and GFP to EC50 for human CSC-like HMLE cells expressing shRNA and epithelial cadherin", "assay_type": "ADME, cell-based", "details": "read-out: Ratio EC50"}, "[11]": {"molecular_target": "Delta-type opioid receptor (Homo sapiens) (UniProt P41143)", "sequence (P41143 whole entry)": "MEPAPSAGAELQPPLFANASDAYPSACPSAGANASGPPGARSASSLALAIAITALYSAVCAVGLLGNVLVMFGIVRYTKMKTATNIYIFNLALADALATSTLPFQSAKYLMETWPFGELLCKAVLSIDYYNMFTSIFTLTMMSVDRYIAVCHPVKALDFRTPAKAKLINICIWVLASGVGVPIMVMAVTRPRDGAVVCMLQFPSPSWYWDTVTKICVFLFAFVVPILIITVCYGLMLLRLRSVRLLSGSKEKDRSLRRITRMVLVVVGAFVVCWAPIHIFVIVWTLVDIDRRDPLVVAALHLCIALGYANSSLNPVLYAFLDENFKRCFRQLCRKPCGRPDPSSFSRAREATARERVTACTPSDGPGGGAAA", "details": "HEK293, 10 uM"}, "Oryctolagus cuniculus": {"organism": "Oryctolagus cuniculus", "assay": "Displacement of [3H]alpha, beta-methylene-ATP from purinergic P2X receptor in New Zealand albino rabbit urinary bladder at 10 uM after 30 mins relative to control"}, "[12]": {"assay": "Displacement of [3H]alpha, beta-methylene-ATP from purinergic P2X receptor in New Zealand albino rabbit urinary bladder after 30 mins", "design": "species or system Oryctolagus cuniculus"}, "Rattus norvegicus [13]": {"organism": "Rattus norvegicus", "assay": "Displacement of [3H]GABA from GABA transporter in Wistar rat cerebral cortex at 10 uM after 20 mins relative to control", "assay_type": "tissue-based"}, "[14]": {"assay": "Displacement of [3H]GABA from GABA transporter in Wistar rat cerebral cortex after 20 mins", "assay_type": "tissue-based"}, "[15]": {"molecular_target": "Gamma-aminobutyric acid type B receptor subunit 1 (Homo sapiens) (UniProt Q9UBS5)", "sequence (Q9UBS5 whole entry)": "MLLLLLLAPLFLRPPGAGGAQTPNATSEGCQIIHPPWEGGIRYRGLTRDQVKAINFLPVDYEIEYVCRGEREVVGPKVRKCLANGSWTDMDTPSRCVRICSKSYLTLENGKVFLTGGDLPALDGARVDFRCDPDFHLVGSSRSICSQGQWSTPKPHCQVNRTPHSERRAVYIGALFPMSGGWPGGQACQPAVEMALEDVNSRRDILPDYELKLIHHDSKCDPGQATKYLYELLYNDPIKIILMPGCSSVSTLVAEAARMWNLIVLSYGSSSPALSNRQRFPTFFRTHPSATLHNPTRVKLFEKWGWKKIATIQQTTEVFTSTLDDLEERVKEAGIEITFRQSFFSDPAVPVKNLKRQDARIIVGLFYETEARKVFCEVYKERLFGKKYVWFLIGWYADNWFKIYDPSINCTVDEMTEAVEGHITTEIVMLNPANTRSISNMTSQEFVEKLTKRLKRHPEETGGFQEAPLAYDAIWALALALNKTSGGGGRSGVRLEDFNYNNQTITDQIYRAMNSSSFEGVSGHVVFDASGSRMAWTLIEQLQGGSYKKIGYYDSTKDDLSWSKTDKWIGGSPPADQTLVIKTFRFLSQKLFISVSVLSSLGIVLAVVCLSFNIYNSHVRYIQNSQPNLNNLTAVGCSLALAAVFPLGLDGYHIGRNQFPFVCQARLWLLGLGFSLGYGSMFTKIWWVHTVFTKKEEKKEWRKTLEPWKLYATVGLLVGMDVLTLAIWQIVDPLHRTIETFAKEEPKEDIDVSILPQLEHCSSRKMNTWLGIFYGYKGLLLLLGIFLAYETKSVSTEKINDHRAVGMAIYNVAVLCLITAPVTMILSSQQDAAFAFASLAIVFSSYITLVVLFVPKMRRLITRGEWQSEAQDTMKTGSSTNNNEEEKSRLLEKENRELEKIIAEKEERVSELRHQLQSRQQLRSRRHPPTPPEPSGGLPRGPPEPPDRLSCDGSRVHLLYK", "assay": "Displacement of [3H]CGP54626 from human recombinant GABAB1A receptor expressed in CHO cells at 10 uM after 3 hrs relative to control", "assay_type": "cell-based"}, "[16]": {"molecular_target": "Sodium-dependent dopamine transporter (Homo sapiens) (UniProt Q01959)", "sequence (Q01959 whole entry)": "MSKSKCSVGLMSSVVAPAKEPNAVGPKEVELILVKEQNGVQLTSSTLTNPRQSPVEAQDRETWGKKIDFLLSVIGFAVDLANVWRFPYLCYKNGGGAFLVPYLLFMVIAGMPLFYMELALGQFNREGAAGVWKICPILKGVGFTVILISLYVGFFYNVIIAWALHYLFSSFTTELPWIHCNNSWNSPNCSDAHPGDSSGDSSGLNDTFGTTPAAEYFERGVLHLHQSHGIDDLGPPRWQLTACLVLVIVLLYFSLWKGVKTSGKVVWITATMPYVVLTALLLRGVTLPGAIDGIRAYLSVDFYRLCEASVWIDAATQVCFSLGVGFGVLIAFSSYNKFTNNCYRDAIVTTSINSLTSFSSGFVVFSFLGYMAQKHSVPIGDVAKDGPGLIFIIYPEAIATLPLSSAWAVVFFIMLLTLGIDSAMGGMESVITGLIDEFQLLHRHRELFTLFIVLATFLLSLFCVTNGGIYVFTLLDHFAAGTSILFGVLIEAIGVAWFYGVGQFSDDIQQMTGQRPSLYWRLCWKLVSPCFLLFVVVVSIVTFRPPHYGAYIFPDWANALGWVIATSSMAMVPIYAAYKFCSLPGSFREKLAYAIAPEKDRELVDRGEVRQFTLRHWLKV", "details": "CHO-K1, 10 uM"}, "[17]": {"molecular_target": "Histamine H3 receptor (Homo sapiens) (UniProt Q9Y5N1)", "sequence (Q9Y5N1 whole entry)": "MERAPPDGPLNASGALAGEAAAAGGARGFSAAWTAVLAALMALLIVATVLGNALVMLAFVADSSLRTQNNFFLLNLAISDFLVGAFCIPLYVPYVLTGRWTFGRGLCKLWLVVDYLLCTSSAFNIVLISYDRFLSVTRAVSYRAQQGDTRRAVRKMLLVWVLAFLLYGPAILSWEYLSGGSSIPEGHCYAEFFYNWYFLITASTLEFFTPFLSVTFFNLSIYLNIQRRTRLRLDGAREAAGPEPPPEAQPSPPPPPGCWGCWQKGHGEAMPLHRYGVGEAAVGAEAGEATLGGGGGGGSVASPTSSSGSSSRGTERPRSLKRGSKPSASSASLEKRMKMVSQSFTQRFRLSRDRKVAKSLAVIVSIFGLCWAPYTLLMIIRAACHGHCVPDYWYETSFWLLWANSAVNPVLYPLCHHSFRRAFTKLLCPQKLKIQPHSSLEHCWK", "details": "CHO-K1, 10 uM"}, "Rattus norvegicus [18]": {"organism": "Rattus norvegicus", "assay": "Displacement of [125I]Triiodothyronine from thyroid hormone receptor in Wistar rat liver at 10 uM after 18 hrs relative to control"}, "Substance-P receptor [19]": {"molecular_target": "T1, Substance-P receptor (Homo sapiens, UniProt P25103)", "T1 sequence (P25103 whole entry)": "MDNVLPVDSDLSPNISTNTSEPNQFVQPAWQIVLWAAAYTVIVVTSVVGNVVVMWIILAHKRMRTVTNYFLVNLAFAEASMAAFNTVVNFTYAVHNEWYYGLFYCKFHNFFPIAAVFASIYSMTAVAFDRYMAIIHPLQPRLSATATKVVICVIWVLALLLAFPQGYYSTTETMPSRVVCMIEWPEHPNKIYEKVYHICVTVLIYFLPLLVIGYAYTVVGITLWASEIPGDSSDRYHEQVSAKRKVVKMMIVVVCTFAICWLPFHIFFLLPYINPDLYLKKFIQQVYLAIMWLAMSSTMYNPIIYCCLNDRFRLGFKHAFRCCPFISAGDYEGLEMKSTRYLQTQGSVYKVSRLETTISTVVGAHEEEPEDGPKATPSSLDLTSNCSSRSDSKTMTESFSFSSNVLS", "assay": "Displacement of [3H]Substance P from human recombinant substance P receptor expressed in CHO cells at 10 uM after 90 mins relative to control", "assay_type": "cell-based"}, "Substance-P receptor [20]": {"molecular_target": "T1, Substance-P receptor", "assay": "Displacement of [3H]Substance P from human recombinant substance P receptor expressed in CHO cells after 90 mins", "assay_type": "cell-based"}, "HMLE": {"system": "HMLE", "assay": "Cytotoxicity against human CSC-like HMLE cells expressing shRNA and epithelial cadherin at 20 uM after 70 to 74 hrs by Cell Titer Glo assay", "assay_type": "functional, cell-based"}}, "note": "Active and inactive are the calls of the source. The rule behind the calls is not given here."}
{"smiles": "COc1ccc2[nH]cc(CCNC(C)=O)c2c1", "values": [{"measurement": "inhibition", "setting": "CHO-K1", "value": 11, "unit": "%"}]}
{"smiles": "CCCCOc1cc(C(=O)NCCN(CC)CC)c2ccccc2n1", "note": "[DIBUCAINE]", "values": [{"measurement": "inhibition", "setting": "Rattus norvegicus [1]", "value": 10, "unit": "%"}, {"measurement": "IC50", "setting": "[2]", "value": 610, "unit": "nM"}, {"measurement": "Ki", "setting": "[2]", "value": 550, "unit": "nM"}]}
{"smiles": "Clc1ccc(C2CC3CCC2N3)cn1", "note": "(stereo unspecified)", "values": [{"measurement": "inhibition", "setting": "IMR-32", "value": 12, "unit": "%"}]}
{"smiles": "O=C(O)/C(=C/c1c(C(=O)O)[nH]c2cc(Cl)cc(Cl)c12)c1ccccc1", "values": [{"measurement": "inhibition", "setting": "[3]", "value": -3, "unit": "%"}, {"measurement": "IC50", "setting": "Glutamate NMDA receptor", "value": 22, "unit": "nM"}, {"measurement": "Ki", "setting": "Glutamate NMDA receptor", "value": 21, "unit": "nM"}]}
{"smiles": "COc1ccc(Cl)cc1C(=O)NCCc1ccc(S(=O)(=O)NC(=O)NC2CCCCC2)cc1", "note": "[GLYBURIDE]", "values": [{"measurement": "inhibition", "setting": "HIT-T15", "value": 10, "unit": "%"}, {"measurement": "IC50", "setting": "[4]", "value": 5.7, "unit": "nM"}, {"measurement": "Ki", "setting": "[4]", "value": 0.65, "unit": "nM"}]}
{"smiles": "CC(C)c1ccc(/C=C/C(=O)NC2=NC(=O)CS2)cc1", "values": [{"measurement": "selectivity ratio", "setting": "[5]", "value": 2.03}, {"measurement": "EC50", "setting": "[6]", "value": 13300, "unit": "nM"}, {"measurement": "EC50", "setting": "[7]", "value": 27000, "unit": "nM"}]}
{"smiles": "CCCCC/C=C\\C\\C=C/C=C/C=C/[C@@H](SC[C@H](N)C(=O)NCC(=O)O)[C@@H](O)CCCC(=O)O", "values": [{"measurement": "inhibition", "setting": "[8]", "value": -10, "unit": "%"}]}
{"smiles": "CC(C)c1ccc(/C=C/C(=O)Nc2ccccc2)cc1", "values": [{"measurement": "selectivity ratio", "setting": "[5]", "value": 0.95}, {"measurement": "EC50", "setting": "[6]", "value": 3440, "unit": "nM"}, {"measurement": "EC50", "setting": "[7]", "value": 3280, "unit": "nM"}]}
{"smiles": "CC(C)c1ccc(/C=C/C(=O)Nc2nccs2)cc1", "values": [{"measurement": "selectivity ratio", "setting": "[5]", "value": 2.05}, {"measurement": "EC50", "setting": "[6]", "value": 3550, "unit": "nM"}, {"measurement": "EC50", "setting": "[7]", "value": 7260, "unit": "nM"}]}
{"smiles": "O=C(c1ccc(F)cc1)C1CCN(CCn2c(=O)[nH]c3ccccc3c2=O)CC1", "values": [{"measurement": "inhibition", "setting": "[9]", "value": 42, "unit": "%"}]}
{"smiles": "O=C(/C=C/c1ccc(-c2ccccc2)cc1)NC1=NCCS1", "values": [{"measurement": "EC50", "setting": "[6]", "value": 34600, "unit": "nM"}, {"measurement": "selectivity ratio", "setting": "[10]", "value": 53.1}, {"measurement": "EC50", "setting": "[7]", "value": 650, "unit": "nM"}]}
{"smiles": "Oc1ccc2c3c1O[C@H]1c4[nH]c5ccccc5c4C[C@@]4(O)[C@@H](C2)N(CC2CC2)CC[C@]314", "values": [{"measurement": "inhibition", "setting": "[11]", "value": 18, "unit": "%"}]}
{"smiles": "Nc1ncnc2c1ncn2[C@@H]1O[C@H](COP(=O)(O)CP(=O)(O)OP(=O)(O)O)[C@@H](O)[C@H]1O", "note": "[DIPHOSPHOMETHYLPHOSPHONIC ACID ADENOSYL ESTER]", "values": [{"measurement": "inhibition", "setting": "Oryctolagus cuniculus", "value": 3, "unit": "%"}, {"measurement": "IC50", "setting": "[12]", "value": 82, "unit": "nM"}, {"measurement": "Ki", "setting": "[12]", "value": 18, "unit": "nM"}]}
{"smiles": "COc1cccc(/C=C/C(=O)NC2=NCCS2)c1", "values": [{"measurement": "EC50", "setting": "[6]", "value": 96200, "unit": "nM"}, {"measurement": "EC50", "setting": "[7]", "value": 62200, "unit": "nM"}]}
{"smiles": "O=C(O)C1=CCCN(CCON=C(c2ccccc2)c2ccccc2)C1", "values": [{"measurement": "inhibition", "setting": "Rattus norvegicus [13]", "value": -6, "unit": "%"}, {"measurement": "IC50", "setting": "[14]", "value": 200, "unit": "nM"}, {"measurement": "Ki", "setting": "[14]", "value": 200, "unit": "nM"}]}
{"smiles": "C[C@H](NC[C@H](O)CP(=O)(O)CC1CCCCC1)c1ccc(Cl)c(Cl)c1", "values": [{"measurement": "inhibition", "setting": "[15]", "value": 1, "unit": "%"}]}
{"smiles": "Fc1ccc(C(OCCN2CCN(CCCc3ccccc3)CC2)c2ccc(F)cc2)cc1", "values": [{"measurement": "inhibition", "setting": "[16]", "value": 5, "unit": "%"}]}
{"smiles": "CC(C)Cc1ccc(/C=C/C(=O)NC2=NCCS2)cc1", "values": [{"measurement": "EC50", "setting": "[6]", "value": 2170, "unit": "nM"}, {"measurement": "selectivity ratio", "setting": "[10]", "value": 4.54}, {"measurement": "EC50", "setting": "[7]", "value": 478, "unit": "nM"}]}
{"smiles": "C[C@@H](N)Cc1c[nH]cn1", "values": [{"measurement": "inhibition", "setting": "[17]", "value": 6, "unit": "%"}]}
{"smiles": "N[C@@H](Cc1cc(I)c(Oc2ccc(O)c(I)c2)c(I)c1)C(=O)O", "values": [{"measurement": "inhibition", "setting": "Rattus norvegicus [18]", "value": 6, "unit": "%"}]}
{"smiles": "Ic1ccccc1N[C@@H]1C2CCN(CC2)[C@@H]1C(c1ccccc1)c1ccccc1", "values": [{"measurement": "inhibition", "setting": "Substance-P receptor [19]", "value": 0, "unit": "%"}, {"measurement": "IC50", "setting": "Substance-P receptor [20]", "value": 3.6, "unit": "nM"}, {"measurement": "Ki", "setting": "Substance-P receptor [20]", "value": 2.6, "unit": "nM"}]}
{"smiles": "COc1ccccc1/C=C/C(=O)NC1=NCCS1", "values": [{"measurement": "Activity", "setting": "HMLE", "value": "inactive"}, {"measurement": "EC50", "setting": "[6]", "value": 93300, "unit": "nM"}]}
